From ChEMBL document CHEMBL1201862, “PubChem BioAssay data set” (2004)
Calls of active or inactive are those of the source.

Tests used:
[1] = biological target: Luciferin 4-monooxygenase (Photinus pyralis, UniProt P08659); assay: inhibition of purified Photinus pyralis luciferase – biochemical, luminescence, dose response (AID 1891)
[2] = Fluorescence Cell-Based Dose Response to Identify Inhibitors of Thrombin Receptor-Activating Peptide SFLLRN-Mediated P-Selectin Induction on Platelets. [Related pubchem assays: 1663 (Primary HTS), 1889 (retest at dose ), 1891 (counterscreen), 1678 (Project Summary)]; format: functional
[3] = Luminescence Cell-Based Dose Confirmation HTS to Identify Inhibitors of Platelet Dense Granule Release. [Related pubchem assays: 1663 (Primary HTS), 1678 (Summary of Project)]; format: functional
[4] = M. tuberculosis H37Rv growth inhibitors, H37Rv strain (AID 1626); format: functional
[5] = biological target: T1, Protein RecA (Mycobacterium tuberculosis, UniProt P9WHJ3); assay: Fluorescence Cell-Free Homogeneous Dose Retest to Identify Inhibitors of RecA-Intein Splicing Activity. [Related pubchem assays (depositor defined):AID2097, AID2223, AID489010, AID492950]; format: functional
T1 sequence (P9WHJ3 whole entry): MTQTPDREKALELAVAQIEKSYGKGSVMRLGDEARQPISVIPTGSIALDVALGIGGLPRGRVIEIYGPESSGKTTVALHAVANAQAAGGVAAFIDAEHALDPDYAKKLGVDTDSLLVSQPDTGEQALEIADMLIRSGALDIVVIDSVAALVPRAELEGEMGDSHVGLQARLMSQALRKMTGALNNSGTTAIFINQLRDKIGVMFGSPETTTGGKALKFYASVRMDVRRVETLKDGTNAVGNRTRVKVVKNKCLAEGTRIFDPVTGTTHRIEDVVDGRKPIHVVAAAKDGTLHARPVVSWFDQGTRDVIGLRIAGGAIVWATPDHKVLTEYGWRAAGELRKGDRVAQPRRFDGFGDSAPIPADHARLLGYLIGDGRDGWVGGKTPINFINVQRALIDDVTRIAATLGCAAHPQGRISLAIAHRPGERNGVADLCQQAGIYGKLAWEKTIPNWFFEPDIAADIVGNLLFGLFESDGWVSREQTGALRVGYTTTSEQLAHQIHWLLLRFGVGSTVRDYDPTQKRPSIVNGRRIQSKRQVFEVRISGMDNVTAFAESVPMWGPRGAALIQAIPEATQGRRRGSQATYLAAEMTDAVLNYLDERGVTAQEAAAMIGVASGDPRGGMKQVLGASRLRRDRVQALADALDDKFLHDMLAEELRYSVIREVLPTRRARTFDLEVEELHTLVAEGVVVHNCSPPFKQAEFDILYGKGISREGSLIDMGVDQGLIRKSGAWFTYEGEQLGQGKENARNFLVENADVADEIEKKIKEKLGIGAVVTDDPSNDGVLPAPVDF

[6] = biological target: Large T antigen (Simian virus 40, UniProt P03070); format: functional, Betapolyomavirus macacae;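 also: Confirmatory-stage PubChem screen for compounds that inhibit SV40 T antigen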
[7] = biological target: T2, Replicative DNA helicase DnaB (Mycobacterium tuberculosis, UniProt P9WMR3); assay: DnaB intein splicing inhibitors, dose response, biochemical, cell-free fluorescence (AID 449749); format: functional
T2 sequence (P9WMR3 whole entry): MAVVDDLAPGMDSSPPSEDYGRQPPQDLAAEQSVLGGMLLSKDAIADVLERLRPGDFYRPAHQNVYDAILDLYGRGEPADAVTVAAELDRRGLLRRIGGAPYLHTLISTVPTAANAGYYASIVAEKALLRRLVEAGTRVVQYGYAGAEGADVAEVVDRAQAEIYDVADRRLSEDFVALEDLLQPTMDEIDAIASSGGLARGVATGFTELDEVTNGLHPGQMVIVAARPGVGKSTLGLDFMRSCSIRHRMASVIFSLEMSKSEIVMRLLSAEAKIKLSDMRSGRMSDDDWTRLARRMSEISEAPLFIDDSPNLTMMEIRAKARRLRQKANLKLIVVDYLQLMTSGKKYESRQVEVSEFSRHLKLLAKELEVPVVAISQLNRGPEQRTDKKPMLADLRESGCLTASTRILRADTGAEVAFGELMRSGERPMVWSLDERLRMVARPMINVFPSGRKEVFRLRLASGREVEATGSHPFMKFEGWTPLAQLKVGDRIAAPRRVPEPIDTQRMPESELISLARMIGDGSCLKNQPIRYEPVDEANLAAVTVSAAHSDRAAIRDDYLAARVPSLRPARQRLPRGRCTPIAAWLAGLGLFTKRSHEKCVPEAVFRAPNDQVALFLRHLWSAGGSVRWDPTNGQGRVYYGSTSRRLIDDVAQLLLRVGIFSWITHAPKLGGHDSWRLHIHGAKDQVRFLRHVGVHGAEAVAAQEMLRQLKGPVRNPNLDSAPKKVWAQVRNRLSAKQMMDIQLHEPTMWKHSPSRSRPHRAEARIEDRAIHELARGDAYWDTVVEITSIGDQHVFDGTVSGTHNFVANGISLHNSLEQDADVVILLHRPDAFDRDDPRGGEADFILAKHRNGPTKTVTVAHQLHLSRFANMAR

[8] = growth inhibition of PfATP4-mutant resistant parasites – NITD609-resistant line, SYBR Green, dry powder, dose response (AID 1159571); format: functional, cell-based;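 also: parasites synchronized at ring stage by sorbitol before testing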
[9] = toxicity to human HepG2 hepatoma cells – cell-based, plate reader, dry powder samples, cytotoxicity control, dose response (AID 1159569); format: functional;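 also: inhibitor potency with signal falling toward the positive control level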
[10] = Plasmodium falciparum Dd2 Sybr green parasite growth Measured in Cell-Based and Microorganism Combination System Using Plate Reader - 2153-01_Inhibitor_Dose_DryPowder_Activity_Set3.; format: functional
[11] = Dd2 parasite growth inhibition in erythrocytes – SYBR Green, dry powder samples, set 9, dose response (AID 1159568); format: functional, cell-based
[12] = Dd2 malaria parasite growth inhibition potency – SYBR Green, dry powder samples, dose response (AID 1159566); format: functional, cell-based;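 also: potency for growth inhibition with lower SYBR green DNA signal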
[13] = P. falciparum Dd2 growth inhibitors, dose response, SYBR Green, cherry-picked samples (AID 1159567); format: functional, cell-based
[14] = growth inhibition of yeast DHODH-expressing 3D7 parasites – SYBR Green, dry powder samples, dose response (AID 1159570); format: functional, cell-based;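 also: parasite growth measured after 72 hours of compound exposure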
[15] = biological target: NADPH oxidase 1 (Homo sapiens, UniProt Q9Y5S8); format: functional, cell-based;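 also: Cell-based assay with luminescence read-out, IC50 derived from inhibitor dose-response curves; intracellular ROS from endogenous NOX1 in intact HT29 colon cancer cells; potency of inhibitors that lower the ROS luminescence signal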
[16] = rise of 2N DNA cells, HeLa – IC50, dose response (AID 1117349); format: functional, cell-based
[17] = biological target: DNA dC->dU-editing enzyme APOBEC-3G (Homo sapiens, UniProt Q9HC16); assay: Dose Response confirmation of small molecule APOBEC3G DNA Deaminase Inhibitors via a fluorescence-based single-stranded DNA deaminase assay. [Related pubchem assays (depositor defined):AID493012, AID493028]; format: functional
[18] = biological target: Genome polyprotein (Hepatitis C virus, UniProt Q2Q167); assay: disruption of hepatitis C core self-association – biochemical, TR-FRET, dose response (AID 2159); set-up: species or system Hepacivirus hominis;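 also: blocks dimerization of HCV core protein measured by TR-FRET between tagged core106 pairs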
[19] = rise of 4N DNA cells, HeLa – IC50, dose response (AID 1117351); format: functional, cell-based
[20] = glucagon-like peptide-1 release potency in STC-1, concentration-response, half-maximal inhibitory concentration in the STC-1 line (AID 1117345); format: functional, cell-based
[21] = Potency on glucagon-like peptide 1 release, dose-response in NCI-H716 cell line, half maximal inhibitory concentration (AID 1117344); format: functional, cell-based

Chain of NADPH oxidase 1 (Q9Y5S8 whole entry): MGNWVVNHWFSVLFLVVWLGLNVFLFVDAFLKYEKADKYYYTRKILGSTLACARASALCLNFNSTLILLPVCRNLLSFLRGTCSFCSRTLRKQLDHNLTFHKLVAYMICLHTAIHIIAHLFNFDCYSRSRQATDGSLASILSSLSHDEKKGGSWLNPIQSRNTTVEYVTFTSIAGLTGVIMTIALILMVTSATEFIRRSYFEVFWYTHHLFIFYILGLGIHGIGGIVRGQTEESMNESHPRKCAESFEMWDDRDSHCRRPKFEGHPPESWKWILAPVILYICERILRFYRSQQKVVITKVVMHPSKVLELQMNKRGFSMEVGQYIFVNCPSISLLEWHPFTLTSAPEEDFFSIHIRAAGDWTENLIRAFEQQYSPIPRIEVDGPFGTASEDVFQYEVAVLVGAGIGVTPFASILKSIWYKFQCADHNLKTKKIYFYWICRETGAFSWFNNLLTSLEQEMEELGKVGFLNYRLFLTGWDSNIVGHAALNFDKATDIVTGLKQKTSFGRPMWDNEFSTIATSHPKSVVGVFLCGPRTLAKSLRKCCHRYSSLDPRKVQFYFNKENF
Chain of Genome polyprotein (Q2Q167 whole entry): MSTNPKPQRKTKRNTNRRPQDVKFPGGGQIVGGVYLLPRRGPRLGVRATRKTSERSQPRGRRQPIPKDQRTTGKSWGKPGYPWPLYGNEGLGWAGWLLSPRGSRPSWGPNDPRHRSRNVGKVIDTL
Chain of Luciferin 4-monooxygenase (P08659 whole entry): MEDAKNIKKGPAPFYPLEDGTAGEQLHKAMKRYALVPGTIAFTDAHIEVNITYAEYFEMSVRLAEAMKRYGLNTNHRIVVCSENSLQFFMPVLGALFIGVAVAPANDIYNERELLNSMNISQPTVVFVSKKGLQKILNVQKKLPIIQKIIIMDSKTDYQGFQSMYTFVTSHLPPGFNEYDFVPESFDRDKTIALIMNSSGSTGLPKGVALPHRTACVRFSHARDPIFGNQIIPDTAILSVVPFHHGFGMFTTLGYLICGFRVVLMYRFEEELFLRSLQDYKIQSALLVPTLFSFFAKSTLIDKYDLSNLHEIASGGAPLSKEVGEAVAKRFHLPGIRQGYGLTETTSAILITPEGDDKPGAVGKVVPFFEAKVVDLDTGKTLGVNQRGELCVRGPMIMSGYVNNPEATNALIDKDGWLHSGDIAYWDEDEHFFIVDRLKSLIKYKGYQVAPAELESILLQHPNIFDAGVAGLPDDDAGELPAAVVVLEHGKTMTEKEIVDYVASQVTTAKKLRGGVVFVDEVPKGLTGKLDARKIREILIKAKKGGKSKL
Chain of DNA dC->dU-editing enzyme APOBEC-3G (Q9HC16 whole entry): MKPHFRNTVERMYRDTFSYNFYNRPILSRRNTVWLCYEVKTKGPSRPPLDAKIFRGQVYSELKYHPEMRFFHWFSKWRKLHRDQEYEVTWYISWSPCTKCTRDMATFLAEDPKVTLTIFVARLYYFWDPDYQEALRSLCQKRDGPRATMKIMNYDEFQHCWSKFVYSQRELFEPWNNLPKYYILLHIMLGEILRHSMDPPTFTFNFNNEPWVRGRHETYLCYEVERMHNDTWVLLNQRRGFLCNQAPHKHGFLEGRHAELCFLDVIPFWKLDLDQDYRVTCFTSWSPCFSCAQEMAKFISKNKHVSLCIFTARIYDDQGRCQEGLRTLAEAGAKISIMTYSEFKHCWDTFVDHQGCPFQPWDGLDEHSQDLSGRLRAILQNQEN
Chain of Large T antigen (P03070 whole entry): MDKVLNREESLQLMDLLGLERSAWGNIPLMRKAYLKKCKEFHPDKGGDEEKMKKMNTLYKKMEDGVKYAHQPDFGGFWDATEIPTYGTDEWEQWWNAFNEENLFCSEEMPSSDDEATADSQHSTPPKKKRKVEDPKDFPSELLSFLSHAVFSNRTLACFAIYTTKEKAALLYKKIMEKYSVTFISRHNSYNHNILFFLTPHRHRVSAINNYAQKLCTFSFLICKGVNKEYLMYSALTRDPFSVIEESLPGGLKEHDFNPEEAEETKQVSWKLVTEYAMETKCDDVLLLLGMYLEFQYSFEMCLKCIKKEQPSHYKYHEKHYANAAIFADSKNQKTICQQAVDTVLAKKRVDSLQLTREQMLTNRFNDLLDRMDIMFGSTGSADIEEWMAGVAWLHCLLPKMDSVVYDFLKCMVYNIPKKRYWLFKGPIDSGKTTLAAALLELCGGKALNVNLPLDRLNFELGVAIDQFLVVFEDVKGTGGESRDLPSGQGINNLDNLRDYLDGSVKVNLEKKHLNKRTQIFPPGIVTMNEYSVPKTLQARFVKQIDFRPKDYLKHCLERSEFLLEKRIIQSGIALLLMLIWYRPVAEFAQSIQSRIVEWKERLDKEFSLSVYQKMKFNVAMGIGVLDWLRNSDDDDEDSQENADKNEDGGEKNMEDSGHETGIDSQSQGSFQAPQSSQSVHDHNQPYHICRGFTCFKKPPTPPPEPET

With COC(=O)CS(=O)(=O)c1ccc2c(c1)CC(=O)N2 the EC50 [1] was > 112 µM (not active), the EC50 [2] was < 1 µM (active) and the EC50 [3] was 1.45 µM (active).
For Oc1cnn(-c2ccccc2)c1, the IC50 [4] was > 100 µM (active), the EC50 [5] was 1.1 µM (active) and the IC50 [6] was 4.71 µM (active). For the same compound, the AC50 [7] was 12.7 µM (active).
For CO[C@@H]1CN(C)C(=O)c2ccc(NC(=O)Nc3ccccc3F)cc2OC[C@@H](C)N(CC2CC2)C[C@H]1C, the AC50 [8] was 0.961 µM (active), the AC50 [9] was > 100 µM (inactive) and the AC50 [10] was 3.04 µM (active). For the same compound, the AC50 [11] was 0.799 µM (active), the AC50 [12] was 0.0955 µM (active) and the AC50 [13] was 0.399 µM (active). For the same compound, the AC50 [14] was 6.67 µM (active).
For C[C@@H]1CCCCO[C@H](CN(C)S(=O)(=O)c2ccc(F)cc2)[C@H](C)CN([C@@H](C)CO)C(=O)c2cc(N(C)C)ccc2O1, the AC50 [11] was 5.44 µM (active).
With CCCC(=O)Nc1ccc2c(c1)OC[C@@H](C)N(Cc1ccccc1F)C[C@@H](C)[C@H](OC)CN(C)C2=O the AC50 [8] was 1.33 µM (active), the AC50 [10] was 1.78 µM (active) and the AC50 [12] was 0.34 µM (active). The AC50 [13] was 0.841 µM (active) and the AC50 [14] was 4.01 µM (active).
In the case of Clc1ccccc1-c1nc(-c2ccccc2)c(-c2ccccc2)[nH]1, the IC50 [15] is reported as > 17 µM (not active).
In the case of O=C1c2c(O)cccc2Cc2cccc(O)c21 [ANTHRALIN], the IC50 [16] is reported as > 10 µM (inactive), the IC50 [17] is reported as > 100 µM (inactive) and the IC50 [18] is reported as > 49.8 µM (not active). For the same compound, the IC50 [19] was > 10 µM (inactive).
For COc1ccc(OC(=O)N(CC(=O)O)Cc2ccc(OCCc3nc(-c4ccccc4)oc3C)cc2)cc1 [MURAGLITAZAR], the IC50 [20] was 1.54 µM (active) and the IC50 [21] was 36.2 µM (inactive).
